Results as given in PubChem BioAssay AID179 (DTP/NCI, 2004).
The source made the active and inactive calls.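 How the source made its calls: active means compounds giving half or more protection of infected cells from virus-caused growth loss, again on retest; inactive means the rest.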

Tested on: CEM cells HIV-1 protection, formazan growth assay
Experiment: NCI AIDS Antiviral Assay
Settings: for IC50: measured here: growth of uninfected CEM cells
Summary of the method: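 Steps: treat uninfected and HIV-1-infected human CEM cells at five drug levels; quantify growth by soluble formazan; retest any compound reaching 50% protection; classify actives from the retest.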

SMILES | EC50 [µM] | IC50 [µM] | outcome
O=C(O)c1ccc2c[n+]3ccccc3cc2c1 | > 427 | > 427 | –
COc1ccc2cc(C(=O)c3ccccc3C(=O)O)ccc2c1 | – | – | inactive
Cc1cnc2c(c1)CCCC2C(N)=S (stereo not given) | – | – | inactive
COc1cc(/C=C2\C(=O)N(C(=O)c3ccc(NC(C)=O)cc3)N=C2C)ccc1O | > 66.1 | > 66.1 | –
CN(C)c1ccc(-c2c(C#N)c(N)[nH]c(=S)c2C#N)cc1 | > 126 | 50.1 | –
Nc1ccccc1C(=O)NNC(=O)c1ccccc1O | > 200 | 16.6 | –
O=C(c1ccncc1)n1nc(-c2ccccc2)c(N=Nc2ccc([N+](=O)[O-])cc2)c1-c1ccccc1 | > 39.8 | > 39.8 | –
O=C(O)CSC(=O)Nc1ccc(N=Nc2ccccc2)cc1 | – | – | inactive
O=[N+]([O-])c1ccc2nc(/C=C(\O)c3ccccc3)c(NC34CC5CC(CC(C5)C3)C4)nc2c1 | > 200 | 182 | –
S=C(Nc1ccc(N=Nc2ccccc2)cc1)SCc1ccc2c(c1)OCO2 | > 200 | 10.7 | –
CCOC(=O)c1cc(C)nc2c1c(=O)n(-c1ccccc1)c(=O)n2CCCCN1CCN(c2ccccc2)CC1 | > 200 | > 200 | –
O=S(=O)(Cc1ccccc1)C(I)c1ccccc1 (stereo not given) | > 69.2 | 13.8 | –
COc1cccc(Nc2nc3c([nH]2)c(=O)n(C)c(=O)n3C)c1 | > 170 | 89.1 | –
COc1cc(N(CCC#N)CCC#N)ccc1/C=C1\SC(=S)NC1=O | > 200 | > 200 | –
Cc1nc(-n2nc(-c3ccccc3)cc2-c2ccccc2)sc1C(/C=C\c1ccc([N+](=O)[O-])cc1)=N/NC(=S)NN | > 32.4 | > 32.4 | –
CC(C)C(/C=C/c1ccccc1)=N\NC(=S)NN | > 200 | 102 | –
ON=C1CCC(c2ccccc2)CC1 (stereo not given) | – | – | inactive
CC1=NN(C(=O)c2ccccc2O)C(=O)C1N=Nc1ccccc1C(=O)O (stereo not given) | – | – | inactive
O=c1[nH]c2ccc(Cl)cc2c2oc(-c3ccccc3)nc12 | – | – | inactive
O=C(NC(=O)c1c(F)cccc1F)Nc1ncc(Cl)cc1Cl | > 200 | > 200 | –
[C-]#[O+].[C-]#[O+].[C-]#[O+].[Re].c1ccc2c(c1)[cH-]c1ccccc12 | > 1.66 | > 1.66 | –
Cn1ncc2[nH]cnc2c1=S | > 200 | 26.9 | –
CCCCCCCSCc1nc2ccccc2c(C)[n+]1[O-] | > 66.1 | 50.1 | –

SMILES | EC50 [µM] | IC50 [µM] | outcome
CCOC(=O)COc1ccc(OC)c2c1C(=O)CCC2 | – | – | inactive
S=C(N/N=C\C(=N/NC(=S)N1CCCCC1)c1ccccc1)N1CCCCC1 | > 200 | 3.8 | –
C[n+]1cccc(O)c1 | – | – | inactive
Nc1nonc1-c1noc(-c2nonc2N)[n+]1[O-] | > 200 | 12.3 | –
CCSCC1OC2OC3C(CSCC)OC(OC4C(CSCC)OC(OC5C(CSCC)OC(OC6C(CSCC)OC(OC7C(CSCC)OC(OC8C(CSCC)OC(OC1C(OS(=O)(=O)O)C2OS(=O)(=O)O)C(OS(=O)(=O)O)C8OS(=O)(=O)O)C(OS(=O)(=O)O)C7OS(=O)(=O)O)C(OS(=O)(=O)O)C6OS(=O)(=O)O)C(OS(=O)(=O)O)C5OS(=O)(=O)O)C(OS(=O)(=O)O)C4OS(=O)(=O)O)C(OS(=O)(=O)O)C3OS(=O)(=O)O (stereo not given) | 2.75 | 50.1 | –
Cc1cc(N(CCC#N)CCC#N)ccc1N=Nc1ccc([N+](=O)[O-])cc1 | > 14.5 | > 14.5 | –
O=C(O)c1ccc(CSc2ccccc2C(=O)O)c([N+](=O)[O-])c1 | > 759 | > 759 | –
Cc1ccc2[nH]c(=O)c(C(C#N)c3ccccc3)nc2c1 (stereo not given) | – | – | inactive
CSc1nc(=O)cnn1C | > 200 | > 200 | –
OC1COCOC1C(O)C1OCOCC1O (stereo not given) | > 200 | > 200 | –
Cc1ccc(S(=O)(=O)Nn2c3c(cc(C#N)c2=O)CCCCC3)cc1 | > 200 | > 200 | –
CC(=O)O/N=C/c1ncccc1CO | > 490 | 389 | –
O=C1NC2(CN3CCC2CC3)C(=O)N1CN(Cc1ccccc1)c1ccccc1 (stereo not given) | > 200 | 91.2 | –
Nc1ncnc2c1nnn2C1C=CC(CP(=O)(O)O)C1 (stereo not given) | > 200 | > 200 | –
O=C1NC(c2ccco2)N2C(=O)NC(c3ccco3)N12 (stereo not given) | – | – | inactive
CC(CCC(N)=O)(CCC(N)=O)[N+](=O)[O-] | > 200 | > 200 | –
COc1ccc(C(=O)C(c2ccc(OC)cc2)C2(O)C(=O)Nc3c(C)cc(Cl)cc32)cc1 (stereo not given) | > 79.4 | > 79.4 | –
CN(C)c1ccc(-n2cccc2)cc1 | > 200 | > 200 | –
Cc1ccc2[nH]c3c(c2c1)[n+]([O-])c1ccccc1[n+]3[O-] | > 200 | 38.9 | –
CCC(=S)N(C)O | > 20.9 | 0.174 | –
C=CC(C#CC#CCCCCCCC)O[Si](C)(C)C(C)(C)C (stereo not given) | – | – | inactive
Cc1ccc(NC=O)cc1F | – | – | inactive
O=C(O)C1CC(C(=O)O)SS1 (stereo not given) | > 1290 | > 1290 | –
